In publication PMC2362793, “A novel class of lipophilic quinazoline-based folic acid analogues: cytotoxic agents with a folate-independent locus” (British Journal of Cancer, 1999):

Key:
[1] = target: T1, thymidylate synthase (TS) (Mus musculus, UniProt P07607); experiment: inhibition of isolated mouse TS activity and inhibition kinetics (IC50 […], Kies […]); format: biochemical
T1 construct: gene Tyms; enzyme partially purified from the L1210:C15 TS-overproducing cell line

[2] = target: T1, thymidylate synthase (TS); experiment: inhibition of isolated mouse TS activity at […] (R,S)-5,10-CH2FH4; format: biochemical

T1 sequence (P07607 whole entry): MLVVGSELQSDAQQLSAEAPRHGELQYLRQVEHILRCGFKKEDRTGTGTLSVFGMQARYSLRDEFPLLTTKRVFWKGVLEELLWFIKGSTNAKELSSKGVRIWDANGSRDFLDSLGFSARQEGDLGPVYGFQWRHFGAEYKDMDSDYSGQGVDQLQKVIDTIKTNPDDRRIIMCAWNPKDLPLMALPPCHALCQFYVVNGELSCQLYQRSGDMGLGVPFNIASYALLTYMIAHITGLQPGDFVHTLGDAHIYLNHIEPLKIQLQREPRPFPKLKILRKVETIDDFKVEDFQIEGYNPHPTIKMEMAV

SMILES	Ki [1]	IC50 [2]
C#CCN(Cc1cc2c(=O)[nH]c(C)nc2cc1Br)c1ccc(C(=O)NCc2ccccn2)cc1 [CB300179]	160 nM	
C#CCN(Cc1cc2c(=O)[nH]c(C)nc2cc1Br)c1ccc(C(=O)NCc2ccncc2)cc1 [CB300189]		250 nM
